Results from PubChem BioAssay (NCI).
Several values for one entry are separate records, joined by “and”; a condition that tells them apart may be missing. Equal entries are not always repeated.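 48-hour exposure; five concentrations; linearly interpolated endpoints. GI50 marks 50% less growth. At the TGI there is no net growth.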

Columns and labels:
Experiment in all cases: DTP human tumour cell line panel, 48 h
HOP-92 NSCLC = test system: HOP-92 NSCLC
A549 NSCLC = test system: A549 NSCLC
A498 renal = test system: A498 renal
SK-MEL-5 melanoma = test system: SK-MEL-5 melanoma
NCI-H522 lung = test system: NCI-H522 lung
SW-620 colon = test system: SW-620 colon
RPMI-8226 leukemia = test system: RPMI-8226 leukemia
NCI-H226 lung = test system: NCI-H226 lung
HT29 colon = test system: HT29 colon
EKVX NSCLC = test system: EKVX NSCLC

## O=C(/C=C1/NC(=O)CS1)Nc1ccccc1
HOP-92 NSCLC
  TGI: > 100 µM
A549 NSCLC
  TGI: > 100 µM
A498 renal
  TGI: > 100 µM
SK-MEL-5 melanoma
  TGI: > 100 µM
NCI-H522 lung
  TGI: > 100 µM
SW-620 colon
  TGI: > 100 µM
RPMI-8226 leukemia
  TGI: > 100 µM
NCI-H226 lung
  TGI: > 100 µM
HT29 colon
  TGI: > 100 µM
EKVX NSCLC
  TGI: > 100 µM

## OC(CNC1CCCC1)Cn1c2ccccc2c2ccccc21 (stereo not drawn)
HOP-92 NSCLC
  GI50: 14.9 µM
  TGI: 34.7 µM
A549 NSCLC
  GI50: > 100 µM
  TGI: > 100 µM
A498 renal
  GI50: 10.7 µM
  TGI: 47.7 µM
SK-MEL-5 melanoma
  GI50: > 100 µM
  TGI: > 100 µM
NCI-H522 lung
  GI50: 20 µM
  TGI: 82.2 µM
SW-620 colon
  GI50: > 100 µM
  TGI: > 100 µM
RPMI-8226 leukemia
  GI50: > 100 µM
  TGI: > 100 µM
NCI-H226 lung
  GI50: 32.1 µM
  TGI: > 100 µM
HT29 colon
  GI50: > 100 µM
  TGI: > 100 µM
EKVX NSCLC
  GI50: 42.3 µM
  TGI: > 100 µM

## CCCCCN(CCCCC)CC(O)c1cc2c(c3ccccc13)CCCC2 (stereo not drawn)
HOP-92 NSCLC
  GI50: 2.5 µM and 3.53 µM
  TGI: 8.94 µM and 17.1 µM
A549 NSCLC
  GI50: 9.87 µM and 12.3 µM
  TGI: 22.8 µM and 29.7 µM
A498 renal
  GI50: 3.34 µM and 10.8 µM
  TGI: 14.1 µM and 23.5 µM
SK-MEL-5 melanoma
  GI50: 2.08 µM and 3.98 µM
  TGI: 5.01 µM and 14.1 µM
NCI-H522 lung
  GI50: 2.02 µM and 3.24 µM
  TGI: 7.72 µM and 13.4 µM
SW-620 colon
  GI50: 5.99 µM
  TGI: 19.4 µM
RPMI-8226 leukemia
  GI50: 2.41 µM and 1.5 µM
  TGI: 7.39 µM and 9.18 µM
NCI-H226 lung
  GI50: 5.64 µM and 11 µM
  TGI: 20.3 µM and 29.2 µM
HT29 colon
  GI50: 1.35 µM and 2.22 µM
  TGI: 9.48 µM and 13.6 µM
EKVX NSCLC
  GI50: 4.92 µM
  TGI: 17.7 µM

## Cc1ccc(C2=C(c3ccccc3)C(Br)(c3ccccc3)C(c3ccccc3)=C2c2ccc(C)cc2)cc1
HOP-92 NSCLC
  TGI: > 100 µM
A549 NSCLC
  TGI: > 100 µM
A498 renal
  TGI: > 100 µM
SK-MEL-5 melanoma
  TGI: > 100 µM
NCI-H522 lung
  TGI: > 100 µM
SW-620 colon
  TGI: > 100 µM
RPMI-8226 leukemia
  TGI: > 100 µM
NCI-H226 lung
  TGI: > 100 µM
HT29 colon
  TGI: > 100 µM
EKVX NSCLC
  TGI: > 100 µM

## COC(=O)[C@@]1(O)C[C@H]2O[C@]1(C)n1c3ccccc3c3c4c(c5c6ccccc6n2c5c31)C(=O)NC4
HOP-92 NSCLC
  GI50: 0.188 µM
  TGI: 0.88 µM
A549 NSCLC
  GI50: 0.24 µM
  TGI: 2.85 µM
A498 renal
  GI50: 0.0712 µM
  TGI: 0.585 µM
NCI-H522 lung
  GI50: 0.0616 µM
  TGI: 1.71 µM
SW-620 colon
  GI50: 0.147 µM
  TGI: 3.11 µM
RPMI-8226 leukemia
  GI50: 0.0784 µM
  TGI: 1.33 µM
NCI-H226 lung
  GI50: 0.32 µM
  TGI: 1.72 µM
HT29 colon
  GI50: 0.212 µM
  TGI: 2.09 µM
EKVX NSCLC
  GI50: 1.92 µM
  TGI: 7.58 µM

## N#CC1=C(N)Oc2c(sc3c(F)cccc23)C1c1ccc(F)cc1 (stereo not drawn)
HOP-92 NSCLC
  GI50: 2.36 µM
  TGI: 13.4 µM
A549 NSCLC
  GI50: 1.05 µM
  TGI: 19.1 µM
A498 renal
  GI50: 0.15 µM
  TGI: 0.909 µM
SK-MEL-5 melanoma
  GI50: 0.657 µM
  TGI: 14.3 µM
NCI-H522 lung
  GI50: 0.473 µM
  TGI: 10.8 µM
SW-620 colon
  GI50: 0.531 µM
  TGI: 16.3 µM
RPMI-8226 leukemia
  GI50: 1.05 µM
  TGI: 14.7 µM
NCI-H226 lung
  GI50: 1.71 µM
  TGI: 15.8 µM
HT29 colon
  GI50: 1.62 µM
  TGI: 12.5 µM
EKVX NSCLC
  GI50: 3.24 µM
  TGI: 20.2 µM

## COCCNC(=O)c1ccc(-c2nc3ccc4[nH]ncc4c3c3c2CCCC3)cc1
HOP-92 NSCLC
  GI50: 1.59 µM
  TGI: 78.9 µM
A549 NSCLC
  GI50: 2.13 µM
  TGI: > 100 µM
A498 renal
  GI50: 0.174 µM
  TGI: 2.93 µM
SK-MEL-5 melanoma
  GI50: 3.39 µM
  TGI: 26.3 µM
NCI-H522 lung
  GI50: 1.92 µM
  TGI: 12.4 µM
SW-620 colon
  GI50: 1.83 µM
  TGI: 13.9 µM
RPMI-8226 leukemia
  GI50: 1.74 µM
  TGI: 7.03 µM
NCI-H226 lung
  GI50: 2.47 µM
  TGI: > 100 µM
HT29 colon
  GI50: 3.11 µM
  TGI: > 100 µM
EKVX NSCLC
  GI50: 1.61 µM
  TGI: 43.2 µM
